The text below walks through data of patent US12410323B2, “Potent antifouling agents albofungins target multiple fouling organisms” (The Hong Kong University of Science and Technology, priority 2021, dated 2025).

For data set [1], the system named is MCCC 1A01390 Pseudomonas pachastrellae. Put plainly: Biofilm inhibition assay (MTT), marine bacteria. In kind it is cell-based. To be noted: lowest concentration inhibiting 90% of biofilm formation; 24 h. Here is the method:
(§1) The ability of the bacteria to form static biofilms was tested. Marine bacteria were cultured overnight in marine broth at 22° C. with 220 rpm agitation (Pseudomonas pachastrellae MCCC 1A01390, Sulfitobacter pontiacus MCCC 1A04899 and Psychrobacter nivimaris MCCC 1A 11723) and at 30° C. (Staphylococcus aureus B04, Staphylococcus sp. Z01 and Micrococcus sp. Z02) and then diluted to 10^7 CFU mL^−1 in marine broth supplemented with 1% of glucose; pathogenic bacteria was cultured overnight in LB broth with 1% glucose with 220 rpm at 37° C. Afterwards, 200 μL of the diluted solution were added to each well of a 96-well plate (Corning Inc., New York, USA) and was then incubated at 22° C. or 30° C. for 24 h. The culture medium, planktonic cells and loosely adhered bacteria were removed by dual washing with a phosphate-buffered saline (PBS) buffer, and the firmly attached bacteria were incubated with 20 μL of MTT (5 mg mL^−1) at 37° C. for 3 h. The supernatant was discarded, and formazan was dissolved in 150 μL of DMSO. Absorbance was measured using the Multiskan™ FC microplate photometer (Thermo Fisher Scientific, Waltham, USA) under 570 nm, and MRSA ATCC 43300 was used as a positive control. All the experiments were performed in triplicate.
(§2) The antibacterial activities of albofungins were tested following specific protocols (She et al., 2020). Marine broth was used as the test medium for the marine bacteria, and the MHB broth was used as the test medium for the pathogenic bacteria. The plate was kept at 22° C. or 30° C. overnight, and the minimum inhibitory concentration (MIC) is the lowest concentration that the drug prevents the visible growth of bacteria. The bacteria which have successfully formed biofilms were further used for antibiofilm formation assays. Different concentrations of albofungin compounds were added to each well. Biofilm formation was assessed through the MTT assay as previously described. […] Data were analyzed using one-way ANOVA to detect significant differences and standard deviation (SD) was calculated using GraphPad Prism 9. All the assays were performed in triplicate.

The test system of data set [2] is MCCC 1A04899 Sulfitobacter pontiacus. Put plainly: Biofilm inhibition assay (MTT), marine bacteria. In kind it is cell-based. To be noted: lowest concentration inhibiting 90% of biofilm formation; 24 h. How it is done: as §1, §2
In data set [3] the test system is MCCC 1A11723 Psychrobacter nivimaris. Put plainly: Biofilm inhibition assay (MTT), marine bacteria. In kind it is cell-based. To be noted: lowest concentration inhibiting 90% of biofilm formation; 24 h. How it is done:
as §1, §2

The subject of data set [4] is Micrococcus sp. Z02. Put plainly: Biofilm inhibition assay (MTT), marine bacteria. The note with it: lowest concentration inhibiting 90% of biofilm formation; 24 h. In kind it is cell-based. Here is the method: as §1, §2
Data set [5] deals with Staphylococcus aureus 04. Put plainly: Biofilm inhibition assay (MTT), marine bacteria. In kind it is cell-based. The note with it: lowest concentration inhibiting 90% of biofilm formation; 24 h. How it is done:
as §1, §2

Data set [6] has as its system Staphylococcus sp. Z01. Put plainly: Biofilm inhibition assay (MTT), marine bacteria. In kind it is cell-based. To be noted: lowest concentration inhibiting 90% of biofilm formation; 24 h. How it is done: as §1, §2
The test system of data set [7] is MCCC 1A01390 Pseudomonas pachastrellae. Put plainly: Bacterial growth inhibition (antibacterial assay, MIC). To be noted: Halopseudomonas pachastrellae; marine broth, overnight. In kind it is cell-based. How it is done:
as §2

In data set [8] the test system is MCCC 1A04899 Sulfitobacter pontiacus. Described as above. In kind it is cell-based. How it is done: as §2
The subject of data set [9] is MCCC 1A11723 Psychrobacter nivimaris. The description is as above. In kind it is cell-based. The note with it: marine broth, overnight. How it is done: as §2
The subject of data set [10] is Micrococcus sp. Z02. The description is as above. In kind it is cell-based. To be noted: marine broth, overnight. Here is the method:
as §2

Data set [11] deals with Staphylococcus aureus 04. Described as above. The note with it: marine broth, overnight. In kind it is cell-based. Here is the method: as §2
Data set [12] has as its system Staphylococcus sp. Z01. Described as above. In kind it is cell-based. To be noted: marine broth, overnight. Here is the method:
as §2

Data set [13] can be described thus: Release rate of albofungin from coatings into artificial seawater (HPLC). In kind it is physicochemical. The note with it: for highest release rate: first day, artificial seawater. How it is done: Around 1 g of albofungin compound was isolated, purified and analyzed using HPLC to guarantee over 95% purity. Albofungin-based hydrolysable and degradable copolymer coating was prepared as follows: methyl methacrylate (MMA) and tributylsilyl methacrylate (TBSM) copolymer (PMSMO) was synthesized via radical ring-opening polymerization (Zhou et al., 2015). For 5 wt % of albofungin-based coating, 0.95 g of PMSMO and 0.05 g of albofungin were dissolved in xylene and tetrahydrofuran (v:v=1:2) and mixed vigorously at room temperature. The solution was then coated on the PVC panels (4×7 cm^2) and dried at room temperature for 7 days (Ma et al., 2017). Other coatings with different albofungin concentrations (10 and 15 wt %) were prepared using the same procedure. The coating with PMSMO only was used as a […]. Each concentration was prepared for three biological replicates. The field test was conducted from March to April 2021 in a fish farm at Yung Shue O, Hong Kong (22° 24′N, 114° 21′E), which was heavily fouled all year round. The PVC panel was submerged into seawater at a depth of 0.5 meters for 2 months, retrieved, washed with seawater, and photographed. The area covered by biofoulers was calculated by Image J (Fiji-2.2.0) (Schindelin, et al., 2012). One-way ANOVA was used to compare the albofungin-coated panels and the control panels. The release rate of albofungin under static conditions was determined by measuring the compound concentration with HPLC. Albofungin-based coatings were applied onto a PVC panel (20×75 mm^2) and submerged in artificial seawater (ASW). After 7 days, the panel was transferred to an individual container with 100 mL of ASW. After 24 h of immersion, 10 mL of the seawater was taken out of the container and extracted with the same volume of ethyl acetate three times. After drying under the SpeedVac vacuum concentrators, the extracts were dissolved in 100 μL of methanol and then subjected to HPLC using a reversed-phase system (Waters 2695) with a Phenomenex Luna C18 column connected to a UV detector at 300 nm. The unique UV absorption of albofungin and retention time were determined, with the amount being calculated from the established standard curves using peak areas plotted against known standard quantities.

Values after ≈ are worked out from the molar mass of the structure shown.

For `CO[C@@H]1CC[C@H](O)c2c1oc1c3c4c(c(O)c1c2=O)-c1c(cc2cc(C)n(N)c(=O)c2c1O)C[C@H]4OCO3` [Albofungin (1), albofungin], the MBIC90 is 0.25 to 0.50 µg/mL in data set [1]; 0.13 to 0.25 µg/mL in [2]; 10 to 20 µg/mL in data set [3]; 31.25 to 62.50 ng/mL in data set [4]; 15.63 to 31.25 ng/mL in data set [5]; 0.63 to 1.25 ng/mL in [6]. In addition, the MIC in data set [7] was 0.5 µg/mL (≈ 0.961 µM); in data set [8], 0.032 µg/mL (≈ 0.0615 µM); in [9], more than 20 µg/mL; in data set [10], 0.0032 µg/mL (≈ 0.00615 µM); in [11], 0.0032 µg/mL (≈ 0.00615 µM); in data set [12], 0.0008 µg/mL (≈ 0.00154 µM). For the same molecule, the highest release rate in data set [13] (5 wt % albofungin coating) stood at 0.86 μg day-1 cm^−2; in data set [13] (10 wt % albofungin coating), 1.1 μg day-1 cm^−2; in data set [13] (15 wt % albofungin coating), 1.4 μg day-1 cm^−2. The “release rate decreased to” value in data set [13] (15, 10 and 5 wt % coatings, time-dependent, within 35 days) is “approximately 0.08 μg day-1 cm^−2”.
